Experimental data from patent US20090062130A1, “NUCLEOSOME-BASED BIOSENSOR” (UNIVERSITY OF PITTSBURGH - OF THE COMMONWEALTH SYSTEM OF …, priority 2006, published 2009).

Key:
ER [1] = conditions: ligand plus estrogen receptor plus Brg1 complex
Procedure: To reconstitute specific chromatin remodeling in vitro, one would co-incubate wild type or mutant ERE-containing nucleosomes with E2/ER or ICI/ER as in D2.2a. Equimolar Brg1, obtainable from Jena Biosciences (Dortmund, Germany), would be added and measurement would be made of the FRET loss that is specific to wt ERE-containing nucleosomes in a buffer of 12 mM HEPES, pH 7.9, 60 mM KCl, 15% glycerol, catalase, 10 mM DTT, 2 mM MgCl2, 4 mM ATP, 0.4% (w/v) glucose, 0.1 mg/ml glucose oxidase, and 0.02 mg/ml catalase. In the absence of measurable FRET loss, Flag-tagged BAF57, BAF155 and BAF170 could 1 be added in a 2:1 ratio, relative to Brg1, in keeping with observations in publication 69. Ligand-dependent measurement of FRET loss would be monitored.
The remodeling reaction is expected to be ATP-dependent. This would be tested by ATP deletion in relation to incubation conditions that had decreased FRET. Also, initial validation of reagents would be effected done through measurement of micrococcal nuclease sensitivity of the mononucleosome bound DNA.

ER [2] = conditions: recombinant protein system, equimolar estrogen, ICI, tamoxifen, cholesterol
From the text: Use of a recombinant protein system would be preferred to use of cell extracts in this context. A recombinant protein system would facilitate modulation of component stoichiometries.

ER, sequence (P03372 whole entry): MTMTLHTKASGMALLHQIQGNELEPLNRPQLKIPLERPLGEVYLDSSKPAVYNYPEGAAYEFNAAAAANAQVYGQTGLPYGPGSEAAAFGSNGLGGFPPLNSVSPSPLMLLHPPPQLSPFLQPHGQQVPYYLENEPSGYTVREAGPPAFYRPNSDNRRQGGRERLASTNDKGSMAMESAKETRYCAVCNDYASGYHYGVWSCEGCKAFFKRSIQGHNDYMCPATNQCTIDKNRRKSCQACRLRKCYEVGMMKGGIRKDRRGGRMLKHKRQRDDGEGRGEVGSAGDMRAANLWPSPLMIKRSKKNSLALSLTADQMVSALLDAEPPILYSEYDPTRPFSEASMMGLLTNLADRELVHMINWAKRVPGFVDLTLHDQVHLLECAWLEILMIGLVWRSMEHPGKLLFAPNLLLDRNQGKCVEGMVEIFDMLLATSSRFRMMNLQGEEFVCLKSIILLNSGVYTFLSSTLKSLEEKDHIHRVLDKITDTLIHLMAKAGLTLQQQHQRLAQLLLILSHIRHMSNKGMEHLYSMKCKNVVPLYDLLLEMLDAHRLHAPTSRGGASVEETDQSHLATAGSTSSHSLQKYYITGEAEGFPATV

Compound	loss of FRET signal (ER [1])	distribution of ligand into sorted pools (ER [2])
C[C@]12CC[C@@H]3c4ccc(O)cc4C[C@@H](CCCCCCCCC[S+]([O-])CCCC(F)(F)C(F)(F)F)[C@H]3[C@@H]1CC[C@@H]2O (stereo partly shown) [ICI, ICI182780]	negative controls	–
CC(C)CCC[C@@H](C)[C@H]1CC[C@H]2[C@@H]3CC=C4C[C@@H](O)CC[C@]4(C)[C@H]3CC[C@]12C [cholesterol]	negative controls	would not be carried forward through the sort
Vitamin D3	negative controls	–
